Results on 14 compounds are retold here after patent US20170121322A1, “BET-PROTEIN INHIBITING 3,4-DIHYDROPYRIDO[2,3-B]PYRAZINONES WITH META-SUBSTITUTED AROMATIC AMINO- OR ETHER GROUPS” (Bayer Pharma Aktiengesellschaft, priority 2014, published 2017).

In test [1] the target is T1, BRD4 bromo domain 2 [BRD4(2)] (Homo sapiens, UniProt O60885).
T1 construct: N-terminally His6-tagged BRD4(2) (amino acids 357-445); made in house; host or cells: E. coli
Nature of the test: BRD4(2)/acetylated peptide H4 TR-FRET binding assay. The settings on record: His6-BRD4(2) (aa 357-445) vs acetylated histone H4 peptide. An excerpt: To assess the BRD4(2) binding strength of the substances described in this application, the ability thereof to inhibit the interaction between BRD4(2) and acetylated histone H4 in a dose-dependent manner was quantified.
For this purpose, a time-resolved fluorescence resonance energy transfer (TR-FRET) assay was used, which measures the binding between N-terminally His6-tagged BRD4(2) (amino acids 357-445) and a synthetic acetylated histone H4 (Ac-H4) peptide with sequence SGRGK(Ac)GGK(Ac)GLGK(Ac)GGAK(Ac)RHRKVLRDNGSGSK-biotin. The recombinant BRD4(2) protein produced in-house according to Filippakopoulos et al., Cell, 2012, 149:214-231 was expressed in E. coli and purified by means of (Ni-NTA) affinity and (Sephadex G-75) size exclusion chromatography. The Ac-H4 peptide can be purchased, for example, from Biosyntan (Berlin, Germany).
In the assay, typically 11 different concentrations of each substance (0.1 nM, 0.33 nM, 1.1 nM, 3.8 nM, 13 nM, 44 nM, 0.15 μM, 0.51 μM, 1.7 μM, 5.9 μM and 20 μM) were analysed as duplicates on the same microtitre plate. For this purpose, 100-fold concentrated solutions in DMSO were prepared by serial dilutions (1:3.4) of a 2 mM stock solution into a clear, 384-well microtitre plate (Greiner Bio-One, Frickenhausen, Germany). From this, 50 nl were transferred into a black test plate (Greiner Bio-One, Frickenhausen, Germany). The test was started by the addition of 2 μl of a 2.5-fold concentrated BRD4(2) solution (final concentration typically 100 nM in the 5 μl of reaction volume) in aqueous assay buffer [50 mM HEPES pH 7.5, 50 mM sodium chloride (NaCl); 50 mM potassium fluoride (KF); 0.25 mM CHAPS and 0.05% serum albumin (BSA)] to the substances in the test plate. This was followed by a 10-minute incubation step at 22° C. for the pre-equilibration of putative complexes between BRD4(2) and the substances.
The mixture was then incubated in the dark at 22° C. for one hour and then at 4° C. for at least 3 hours and for no longer than overnight. The formation of BRD4(2)/Ac-H4 complexes was determined by the measurement of the resonance energy transfer from the streptavidin-Eu chelate to the anti-6His-XL665 antibody present in the reaction. For this purpose, the fluorescence emission was measured at 620 nm and 665 nm after excitation at 330-350 nm in a TR-FRET measuring instrument, for example a Rubystar or Pherastar (both from BMG Lab Technologies, Offenburg, Germany) or a Viewlux (Perkin-Elmer). The ratio of the emissions at 665 nm and at 622 nm was taken as an indicator of the amount of BRD4(2)/Ac-H4 complexes formed.
The data (ratios) obtained were normalized, with 0% inhibition corresponding to the mean from the measurements for a set of controls (typically 32 data points) in which all the reagents were present. In these, in place of test substances, 50 nl of DMSO (100%) were used. Inhibition of 100% corresponded to the mean from the measurements for a set of controls (typically 32 data points) in which all the reagents except BRD4(2) were present. The IC50 was determined by regression analysis based on a 4-parameter equation (minimum, maximum, IC50, Hill; Y=Max+(Min−Max)/(1+(X/IC50)Hill)).
In general terms: TR-FRET usually uses a lanthanide donor and a delayed reading to cut background.

In test [2] the test system is CHL-1 cells. As to the kind of experiment: Cell proliferation assay CHL-1 (alamarBlue). The format is cell-based. The conditions noted are these: Homo sapiens, melanoma (BRAF wild-type) cells, 96 hours. The procedure: (§1) In accordance with the invention, the ability of the substances to inhibit cell proliferation was determined. Cell viability was determined by means of the alamarBlue® reagent (Invitrogen) in a Victor X3 Multilabel Reader (Perkin Elmer). The excitation wavelength was 530 nm and the emission wavelength […].
The CHL-1 cells (ATCC, CRL-9446) were seeded at a concentration of 1000 cells/well in 100 μl of growth medium (DMEM with glutamine, 10% FCS) on 96-well microtitre plates.
(§2) After overnight incubation at 37° C., the fluorescence values (CI values) were determined. Then the plates were treated with various substance dilutions (1E-5 M, 3E-6 M, 1E-6 M, 3E-7 M, 1E-7 M, 3E-8 M, 1E-8 M) and incubated at 37° C. over 96 hours (MOLM-13, B16F10, CHL-1 cells) or 120 hours (MOLP-8 cells). Subsequently, the fluorescence values were determined (CO values). For the data analysis, the CI values were subtracted from the CO values and the results were compared between cells which had been treated with various dilutions of the substance or only with buffer solution. The IC50 values (substance concentration needed for 50% inhibition of cell proliferation) were calculated therefrom.
(§3) The substances were tested in the cell lines in Table 2, which represent the indications specified by way of example: […]
Background: Alamar Blue is a resazurin reagent that responds to reducing activity.

Test [3] concerns B16F10 cells. Nature of the test: Cell proliferation assay B16F10 (alamarBlue). The class given is cell-based. The conditions noted are these: Mus musculus, B16-F10, melanoma (BRAF wild-type) cells, 96 hours. The procedure:
as §1
The B16F10 cells (ATCC, CRL-6475) were seeded at a concentration of 300-500 cells/well in 100 μl of growth medium (DMEM with phenol red, 10% FCS) on 96-well microtitre plates.
as §2, §3

Structures are written as SMILES. pIC50: −log10 of the molar value.

Turning to `CC(C)S(=O)(=O)c1cccc(Nc2ccc3c(n2)N(C2CCN(C)CC2)[C@H](C)C(=O)N3C)c1` [Example 19, (3R)-6-{[3-(Isopropylsulphonyl)phenyl]amino}-1,3-dimethyl-4-(1-methylpiperidin-4-yl)-3,4-dihydropyrido[2,3-b]pyrazin-2(1H)-one], the pIC50 (as a rule, −log10 of the IC50, conventionally taken in molar units) in test [1] was 7.33; in test [2], 7.77; in test [3] it was 7.35.
Consider `CC(C)S(=O)(=O)c1ccc(OC(F)(F)F)c(Nc2ccc3c(n2)N(C2CCN(C)CC2)[C@H](C)C(=O)N3C)c1` [Example 20, (3R)-6-{[5-(Isopropylsulphonyl)-2-(trifluoromethoxy)phenyl]amino}-1,3-dimethyl-4-(1-methylpiperidin-4-yl)-3,4-dihydropyrido[2,3-b]pyrazin-2(1H)-one], for which the results for the pIC50 in test [1], in test [2] and in test [3] were 7.19, 7.70 and 7.31, respectively.
For `COc1ccc(S(=O)(=O)C(C)C)cc1Nc1ccc2c(n1)N(C1CCNCC1)[C@H](C)C(=O)N2C` [Example 26, (3R)-6-{[5-(Isopropylsulphonyl)-2-methoxyphenyl]amino}-1,3-dimethyl-4-(piperidin-4-yl)-3,4-dihydropyrido[2,3-b]pyrazin-2(1H)-one], the pIC50 in test [1] was 7.28; in test [2], 7.66; in test [3], 6.83.
`COc1ccc(S(=O)(=O)C(F)(F)F)cc1Nc1ccc2c(n1)N(C1CCOCC1)[C@H](C)C(=O)N2C` [Example 39, (3R)-6-({2-Methoxy-5-[(trifluoromethyl)sulphonyl]phenyl}amino)-1,3-dimethyl-4-(tetrahydro-2H-pyran-4-yl)-3,4-dihydropyrido[2,3-b]pyrazin-2(1H)-one]: the results for the pIC50 in test [1] and in test [3] were 7.25 and 7.08, respectively.
For `COc1cc(Nc2ccc3c(n2)N(C2CCOCC2)[C@H](C)C(=O)N3C)cc(S(C)(=O)=O)c1` [Example 40, (3R)-6-{[3-Methoxy-5-(methylsulphonyl)phenyl]amino}-1,3-dimethyl-4-(tetrahydro-2H-pyran-4-yl)-3,4-dihydropyrido[2,3-b]pyrazin-2(1H)-one], the values for the negative-log IC50 (pIC50) in test [1] and in test [3] were 7.03 and 6.57, respectively.
In the case of `COc1ccc(S(=O)(=O)C(C)C)cc1Nc1ccc2c(n1)N(C1CCN(CC(F)(F)F)CC1)[C@H](C)C(=O)N2C` [Example 28, (3R)-6-{[5-(Isopropylsulphonyl)-2-methoxyphenyl]amino}-1,3-dimethyl-4-[1-(2,2,2-trifluoroethyl)piperidin-4-yl]-3,4-dihydropyrido[2,3-b]pyrazin-2(1H)-one], the pIC50 in test [1] was 7.20; in test [2], 7.60; in test [3] it was 7.68.
Turning to `COc1ccc(S(=O)(=O)C(F)(F)F)cc1Nc1ccc2c(n1)N(C1CCN(C)CC1)[C@H](C)C(=O)N2C` [Example 21, (3R)-6-({2-Methoxy-5-[(trifluoromethyl)sulphonyl]phenyl}amino)-1,3-dimethyl-4-(1-methylpiperidin-4-yl)-3,4-dihydropyrido[2,3-b]pyrazin-2(1H)-one], the pIC50 was 7.24 in test [1], 7.80 in test [2] and 7.28 in test [3].
As for `COc1ccc(S(=O)(=O)C2CCC2)cc1Nc1ccc2c(n1)N(C1CCOCC1)[C@H](C)C(=O)N2C` [Example 35, (3R)-6-{[5-(Cyclobutylsulphonyl)-2-methoxyphenyl]amino}-1,3-dimethyl-4-(tetrahydro-2H-pyran-4-yl)-3,4-dihydropyrido[2,3-b]pyrazin-2(1H)-one], the pIC50 in test [1] is 7.29; in test [2] it was 8.00; in test [3], 7.80.
Consider `COc1ccc(S(C)(=O)=O)cc1Nc1ccc2c(n1)N(C1CCNCC1)[C@H](C)C(=O)N2C` [Example 27, (3R)-6-{[2-Methoxy-5-(methylsulphonyl)phenyl]amino}-1,3-dimethyl-4-(piperidin-4-yl)-3,4-dihydropyrido[2,3-b]pyrazin-2(1H)-one], for which the results for the negative-log IC50 (pIC50) in test [1] and in test [2] were 7.08 and 6.51, respectively.
Take `CC(C)S(=O)(=O)c1ccc(OC(F)(F)F)c(Nc2ccc3c(n2)N(C2CCOCC2)[C@H](C)C(=O)N3C)c1` [Example 38, (3R)-6-{[5-(Isopropylsulphonyl)-2-(trifluoromethoxy)phenyl]amino}-1,3-dimethyl-4-(tetrahydro-2H-pyran-4-yl)-3,4-dihydropyrido[2,3-b]pyrazin-2(1H)-one]: the results for the negative-log IC50 (pIC50) in test [1], in test [2] and in test [3] were 7.28, 7.62 and 7.80, respectively.
Take `COc1ccc(S(=O)(=O)C2CCOCC2)cc1Nc1ccc2c(n1)N(C1CCOCC1)[C@H](C)C(=O)N2C` [Example 34, (3R)-6-{[2-Methoxy-5-(tetrahydro-2H-pyran-4-ylsulphonyl)phenyl]amino}-1,3-dimethyl-4-(tetrahydro-2H-pyran-4-yl)-3,4-dihydropyrido[2,3-b]pyrazin-2(1H)-one]: the pIC50 is 7.36 in test [1], 7.52 in test [2] and 7.49 in test [3].
For `COc1ccc(S(=O)(=O)C(C)C)cc1Nc1ccc2c(n1)N(C1CCN(CCC(F)(F)F)CC1)[C@H](C)C(=O)N2C` [Example 31, (3R)-6-{[5-(Isopropylsulphonyl)-2-methoxyphenyl]amino}-1,3-dimethyl-4-[1-(3,3,3-trifluoropropyl)piperidin-4-yl]-3,4-dihydropyrido[2,3-b]pyrazin-2(1H)-one], the pIC50 in test [1] is 7.17; in test [2], 7.92.
`COc1ccc(S(=O)(=O)C2CCOCC2)cc1Nc1ccc2c(n1)N(C1CCN(C)CC1)[C@H](C)C(=O)N2C` [Example 22, (3R)-6-{[2-Methoxy-5-(tetrahydro-2H-pyran-4-ylsulphonyl)phenyl]amino}-1,3-dimethyl-4-(1-methylpiperidin-4-yl)-3,4-dihydropyrido[2,3-b]pyrazin-2(1H)-one]: the pIC50 is 7.27 in test [1], 7.68 in test [2] and 6.85 in test [3].
Take `COc1ccc(S(=O)(=O)C(C)C)cc1Nc1ccc2c(n1)N(C1CCN(CC(F)F)CC1)[C@H](C)C(=O)N2C` [Example 29, (3R)-4-[1-(2,2-Difluoroethyl)piperidin-4-yl]-6-{[5-(isopropylsulphonyl)-2-methoxyphenyl]amino}-1,3-dimethyl-3,4-dihydropyrido[2,3-b]pyrazin-2(1H)-one]: the figures for the pIC50 in test [1] and in test [3] were 7.17 and 7.40, respectively.
